Some test systems named below: DLD-1 colon; DMS 114 small cell lung; DMS 273 small cell lung; KM20L2 colon; LXFL 529 NSCLC; M19-MEL melanoma; SNB-78 CNS; HOP-18 NSCLC; RXF-631 renal; P388 leukemia; P388/ADR leukemia; SN12K1 renal.
Experiment in all cases: NCI tumour cell line growth inhibition, 48 h

Each structure is given as a SMILES string.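 Cultured in 96-well plates, cells were exposed to test compound for 48 hours across five concentrations. TGI marks complete inhibition of growth.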

As to `C=C1C(=O)OC2C[C@H](C)C3CC(=O)C(C)=C3CC12` (stereo not given in full), the TGI in the experiment on DLD-1 colon was found to be 21.5 µM; in the experiment with DMS 114 small cell lung it was 32.2 µM; in the experiment on DMS 273 small cell lung, 32.5 µM; in the experiment on KM20L2 colon, 33.5 µM; in the experiment with LXFL 529 NSCLC it was 24.7 µM; with M19-MEL melanoma it was 27.8 µM. The TGI in the experiment on SNB-78 CNS worked out at 44.1 µM.
With `CCOc1ccc(C2=C(Cl)c3cc(OC)c(OC)cc3C2Cl)cc1` (stereo not given), the TGI was over 100 µM in the experiment on DLD-1 colon; 56.2 µM in the experiment with DMS 114 small cell lung; over 100 µM in the experiment on DMS 273 small cell lung; over 100 µM in the experiment with HOP-18 NSCLC; over 100 µM in the experiment with KM20L2 colon; over 100 µM in the experiment with LXFL 529 NSCLC. The TGI with M19-MEL melanoma and with SNB-78 CNS was over 100 µM throughout.
Turning to `COc1cc(C2c3cc4c(cc3OC3(O)COC(=O)C23)OCO4)cc(OC)c1OC` (stereo not given), the TGI in the experiment with DLD-1 colon is over 100 µM; in the experiment with DMS 114 small cell lung, over 100 µM; in the experiment with DMS 273 small cell lung, over 100 µM; in the experiment with HOP-18 NSCLC it was over 100 µM; in the experiment with KM20L2 colon, 54.3 µM; with LXFL 529 NSCLC, over 100 µM. The TGI in the experiment with M19-MEL melanoma, with RXF-631 renal and in the experiment with SNB-78 CNS was over 100 µM each time.
`CN(C)CCSC(=Nc1ccccc1)N1C=COC=C1`: the TGI is 32.4 µM in the experiment on DLD-1 colon; 27.9 µM in the experiment with DMS 114 small cell lung; 35.7 µM with DMS 273 small cell lung; over 100 µM in the experiment on HOP-18 NSCLC; over 100 µM with KM20L2 colon; 30.6 µM in the experiment with LXFL 529 NSCLC. Also, the TGI came out at 32.5 µM in the experiment on M19-MEL melanoma and 90.1 µM in the experiment on SNB-78 CNS.
Consider `CCCCC(NC(=O)CC)C(=O)O` (stereo not given), for which the TGI in the experiment on DLD-1 colon, in the experiment on DMS 114 small cell lung, in the experiment on DMS 273 small cell lung, in the experiment on HOP-18 NSCLC, in the experiment on KM20L2 colon and in the experiment on M19-MEL melanoma was over 100 µM throughout. Further, the TGI with P388 leukemia, in the experiment on P388/ADR leukemia, in the experiment with SN12K1 renal and in the experiment on SNB-78 CNS was over 100 µM in each case.
On to `O=C1NC2OCC(O)C(O1)C2O` (stereo not given), for which the TGI in the experiment with DLD-1 colon, in the experiment with DMS 114 small cell lung, in the experiment with DMS 273 small cell lung, with HOP-18 NSCLC, with KM20L2 colon and in the experiment with LXFL 529 NSCLC was over 100 µM in each case. Also, the TGI with M19-MEL melanoma, in the experiment on RXF-631 renal and in the experiment with SNB-78 CNS was over 100 µM in each case.
As for `CC1=C2C(=O)C3[C@@H](CCC4=CC(=O)CC[C@@]43C)C2CC[C@]12O[C@@H]1C[C@H](C)CN[C@H]1[C@H]2C` (stereo not given in full), the TGI with DLD-1 colon is over 100 µM; in the experiment on DMS 114 small cell lung it was 28.9 µM; in the experiment on DMS 273 small cell lung, 42.8 µM; in the experiment with HOP-18 NSCLC, over 100 µM; with KM20L2 colon it was over 100 µM; in the experiment with LXFL 529 NSCLC it was over 100 µM. In addition, the TGI with M19-MEL melanoma was over 100 µM.
Turning to `CC(C)=CCC/C(C)=C/CC/C(C)=C/CC/C=C(\C)CC/C=C(\C)CCC1SC1(C)C` (stereo not given), the TGI with DLD-1 colon, in the experiment on DMS 114 small cell lung, with DMS 273 small cell lung, in the experiment on HOP-18 NSCLC, in the experiment with KM20L2 colon and with LXFL 529 NSCLC was over 100 µM throughout. In addition, the TGI in the experiment on M19-MEL melanoma and with SNB-78 CNS was over 100 µM throughout.
Turning to `COc1nc(/C=N/NC(N)=S)nc(OC)n1`, the TGI with DLD-1 colon, with DMS 114 small cell lung, in the experiment on DMS 273 small cell lung, with HOP-18 NSCLC, in the experiment on KM20L2 colon and in the experiment on LXFL 529 NSCLC was over 100 µM throughout. The TGI in the experiment with M19-MEL melanoma, with RXF-631 renal and in the experiment with SNB-78 CNS was over 100 µM in each case.
`Cc1ccc(C2(C)NC(=S)N(NC(N)=S)C2=S)cc1` (stereo not given): the TGI in the experiment on DLD-1 colon, with DMS 114 small cell lung, in the experiment with DMS 273 small cell lung, in the experiment with KM20L2 colon, with LXFL 529 NSCLC and in the experiment with M19-MEL melanoma was over 100 µM throughout. This compound displayed a TGI in the experiment with RXF-631 renal of over 100 µM.
Regarding `CC(N)C(=O)c1ccc(O)cc1` (stereo not given), the TGI with DLD-1 colon, with DMS 114 small cell lung, in the experiment on DMS 273 small cell lung, in the experiment with HOP-18 NSCLC, in the experiment on KM20L2 colon and in the experiment on LXFL 529 NSCLC was over 100 µM each time. The TGI in the experiment on RXF-631 renal and in the experiment with SNB-78 CNS was over 100 µM in each case.
In the case of `Cc1c2ccccc2c(CO)c2cc(F)c3ccccc3c12`, the TGI with DLD-1 colon was 43.6 µM; with DMS 114 small cell lung it was 34.2 µM; with DMS 273 small cell lung, 32 µM; in the experiment with HOP-18 NSCLC it was 89.9 µM; with KM20L2 colon, 48.6 µM; with M19-MEL melanoma, over 100 µM. Besides, the TGI with RXF-631 renal came to 30.7 µM; in the experiment on SNB-78 CNS it was 69.1 µM.
On to `Cc1c(/C=N/NC(=O)c2ccccc2)c(=O)n(-c2ccccc2)n1C`, for which the TGI in the experiment on DLD-1 colon, in the experiment with DMS 114 small cell lung, in the experiment on DMS 273 small cell lung, in the experiment on HOP-18 NSCLC, in the experiment on KM20L2 colon and with LXFL 529 NSCLC was over 100 µM throughout. In addition, the TGI in the experiment on M19-MEL melanoma and in the experiment with SNB-78 CNS was over 100 µM throughout.
Turning to `Cc1ccc(S(=O)(=O)NC(=O)C2(Br)S(=O)(=O)OCCOS2(=O)=O)cc1`, the TGI in the experiment with DLD-1 colon, with DMS 114 small cell lung, in the experiment with DMS 273 small cell lung, with KM20L2 colon, with LXFL 529 NSCLC and in the experiment on M19-MEL melanoma was over 100 µM each time. This compound also displayed a TGI in the experiment on SNB-78 CNS of over 100 µM.
With `Cc1ccc(S(=O)(=O)c2c(N)c3nccn3c3nc4ccccc4nc23)cc1`, the TGI in the experiment with DLD-1 colon, in the experiment on DMS 114 small cell lung, in the experiment with DMS 273 small cell lung, with KM20L2 colon, in the experiment on LXFL 529 NSCLC and in the experiment on M19-MEL melanoma was over 100 µM throughout. Besides, the TGI in the experiment with SNB-78 CNS is over 100 µM.

The record behind these values is PubChem BioAssay (NCI).
